{"source": "the supplement of paper PMC10307832", "assay_in_all_cases": "relative viability (nuclei count vs DMSO), 5 days (fraction); higher = more cells survive", "key": {"NCI-H1650": {"system": "NCI-H1650", "summary_of_the_method": "(§1)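 The day after seeding in 1536-well plates, lung cancer cell lines were treated by pin tool with a single drug, or with a fixed anchor-drug dose together with five library-drug doses (not always all listed) in √10 steps. After 5 days, a combined fix-and-stain solution (final 0.05% Triton X-100, 1% formaldehyde, 1 ug/ml Hoechst) was added. Nuclei counted on 4× images gave relative viability as treated counts over vehicle counts, reported as the median of duplicate plates.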"}, "LOU-NH91": {"system": "LOU-NH91", "summary_of_the_method": "as §1"}, "NCI-H2009": {"system": "NCI-H2009", "summary_of_the_method": "as §1"}, "HCC-44": {"system": "HCC-44", "summary_of_the_method": "as §1"}, "NCI-H2228": {"system": "NCI-H2228", "summary_of_the_method": "as §1"}, "NCI-H838": {"system": "NCI-H838", "summary_of_the_method": "as §1"}, "NCI-H520": {"system": "NCI-H520", "summary_of_the_method": "as §1"}, "NCI-H727": {"system": "NCI-H727", "summary_of_the_method": "as §1"}, "NCI-H1755": {"system": "NCI-H1755", "summary_of_the_method": "as §1"}, "ABC-1": {"system": "ABC-1", "summary_of_the_method": "as §1"}, "NCI-H358": {"system": "NCI-H358", "summary_of_the_method": "as §1"}, "LK-2": {"system": "LK-2", "summary_of_the_method": "as §1"}, "NCI-H2347": {"system": "NCI-H2347", "summary_of_the_method": "as §1"}, "NCI-H2405": {"system": "NCI-H2405", "summary_of_the_method": "as §1"}, "NCI-H1355": {"system": "NCI-H1355", "summary_of_the_method": "as §1"}, "UMC-11": {"system": "UMC-11", "summary_of_the_method": "as §1"}, "NCI-H1734": {"system": "NCI-H1734", "summary_of_the_method": "as §1"}, "NCI-H1666": {"system": "NCI-H1666", "summary_of_the_method": "as §1"}, "BEN": {"system": "BEN", "summary_of_the_method": "as §1"}, "SW 1573": {"system": "SW 1573", "summary_of_the_method": "as §1"}, "201T": {"system": "201T", "summary_of_the_method": "as §1"}}, "data": [{"compound": "CCCCCCCCCCCC1=C(O)C(=O)C=C(O)C1=O", "note": "[Embelin] + CCNC(=O)c1noc(-c2cc(C(C)C)c(O)cc2O)c1-c1ccc(CN2CCOCC2)cc1 [Luminespib] (partner 0.01 µM)", "values": [{"measurement": "relative viability", "setting": "NCI-H1650; first compound 0.08 µM", "result": 0.16}, {"measurement": "relative viability", "setting": "NCI-H1650; first compound 0.8 µM", "result": 0.196}, {"measurement": "relative viability", "setting": "NCI-H1650; first compound 2.53 µM", "result": 0.212}, {"measurement": "relative viability", "setting": "NCI-H1650; first compound 8 µM", "result": 0.185}, {"measurement": "relative viability", "setting": "LOU-NH91; first compound 0.08 µM", "result": 0.429}, {"measurement": "relative viability", "setting": "LOU-NH91; first compound 0.8 µM", "result": 0.369}, {"measurement": "relative viability", "setting": "LOU-NH91; first compound 2.53 µM", "result": 0.36}, {"measurement": "relative viability", "setting": "LOU-NH91; first compound 8 µM", "result": 0.299}, {"measurement": "relative viability", "setting": "NCI-H2009; first compound 0.08 µM", "result": 1.05}, {"measurement": "relative viability", "setting": "NCI-H2009; first compound 0.8 µM", "result": 1.07}, {"measurement": "relative viability", "setting": "NCI-H2009; first compound 2.53 µM", "result": 1.08}, {"measurement": "relative viability", "setting": "NCI-H2009; first compound 8 µM", "result": 1.01}, {"measurement": "relative viability", "setting": "HCC-44; first compound 0.08 µM", "result": 1.04}, {"measurement": "relative viability", "setting": "HCC-44; first compound 0.8 µM", "result": 1.1}, {"measurement": "relative viability", "setting": "HCC-44; first compound 2.53 µM", "result": 1.37}, {"measurement": "relative viability", "setting": "HCC-44; first compound 8 µM", "result": 0.852}, {"measurement": "relative viability", "setting": "NCI-H2228; first compound 0.08 µM", "result": 0.148}, {"measurement": "relative viability", "setting": "NCI-H2228; first compound 0.8 µM", "result": 0.13}, {"measurement": "relative viability", "setting": "NCI-H2228; first compound 2.53 µM", "result": 0.228}, {"measurement": "relative viability", "setting": "NCI-H2228; first compound 8 µM", "result": 0.151}, {"measurement": "relative viability", "setting": "NCI-H838; first compound 0.08 µM", "result": 0.292}, {"measurement": "relative viability", "setting": "NCI-H838; first compound 0.8 µM", "result": 0.449}, {"measurement": "relative viability", "setting": "NCI-H838; first compound 2.53 µM", "result": 0.362}, {"measurement": "relative viability", "setting": "NCI-H838; first compound 8 µM", "result": 0.244}, {"measurement": "relative viability", "setting": "NCI-H520; first compound 0.08 µM", "result": 0.224}, {"measurement": "relative viability", "setting": "NCI-H520; first compound 0.8 µM", "result": 0.29}, {"measurement": "relative viability", "setting": "NCI-H520; first compound 2.53 µM", "result": 0.183}, {"measurement": "relative viability", "setting": "NCI-H520; first compound 8 µM", "result": 0.235}, {"measurement": "relative viability", "setting": "NCI-H727; first compound 0.08 µM", "result": 0.317}, {"measurement": "relative viability", "setting": "NCI-H727; first compound 0.8 µM", "result": 0.417}, {"measurement": "relative viability", "setting": "NCI-H727; first compound 2.53 µM", "result": 0.304}, {"measurement": "relative viability", "setting": "NCI-H727; first compound 8 µM", "result": 0.386}, {"measurement": "relative viability", "setting": "NCI-H1755; first compound 0.08 µM", "result": 0.257}, {"measurement": "relative viability", "setting": "NCI-H1755; first compound 0.8 µM", "result": 0.603}, {"measurement": "relative viability", "setting": "NCI-H1755; first compound 2.53 µM", "result": 0.637}, {"measurement": "relative viability", "setting": "NCI-H1755; first compound 8 µM", "result": 0.421}, {"measurement": "relative viability", "setting": "ABC-1; first compound 0.08 µM", "result": 0.546}, {"measurement": "relative viability", "setting": "ABC-1; first compound 0.8 µM", "result": 0.841}, {"measurement": "relative viability", "setting": "ABC-1; first compound 2.53 µM", "result": 0.913}, {"measurement": "relative viability", "setting": "ABC-1; first compound 8 µM", "result": 0.825}, {"measurement": "relative viability", "setting": "NCI-H358; first compound 0.08 µM", "result": 0.464}, {"measurement": "relative viability", "setting": "NCI-H358; first compound 0.8 µM", "result": 0.447}, {"measurement": "relative viability", "setting": "NCI-H358; first compound 2.53 µM", "result": 0.44}, {"measurement": "relative viability", "setting": "NCI-H358; first compound 8 µM", "result": 0.306}, {"measurement": "relative viability", "setting": "LK-2; first compound 0.08 µM", "result": 0.17}, {"measurement": "relative viability", "setting": "LK-2; first compound 0.8 µM", "result": 0.281}, {"measurement": "relative viability", "setting": "LK-2; first compound 2.53 µM", "result": 0.189}, {"measurement": "relative viability", "setting": "LK-2; first compound 8 µM", "result": 0.198}, {"measurement": "relative viability", "setting": "NCI-H2347; first compound 0.08 µM", "result": 0.73}, {"measurement": "relative viability", "setting": "NCI-H2347; first compound 0.8 µM", "result": 0.489}, {"measurement": "relative viability", "setting": "NCI-H2347; first compound 2.53 µM", "result": 0.686}, {"measurement": "relative viability", "setting": "NCI-H2347; first compound 8 µM", "result": 0.62}, {"measurement": "relative viability", "setting": "NCI-H2405; first compound 0.08 µM", "result": 0.723}, {"measurement": "relative viability", "setting": "NCI-H2405; first compound 0.8 µM", "result": 0.681}, {"measurement": "relative viability", "setting": "NCI-H2405; first compound 2.53 µM", "result": 0.775}, {"measurement": "relative viability", "setting": "NCI-H2405; first compound 8 µM", "result": 0.738}, {"measurement": "relative viability", "setting": "NCI-H1355; first compound 0.08 µM", "result": 0.764}, {"measurement": "relative viability", "setting": "NCI-H1355; first compound 0.8 µM", "result": 0.847}, {"measurement": "relative viability", "setting": "NCI-H1355; first compound 2.53 µM", "result": 0.837}, {"measurement": "relative viability", "setting": "NCI-H1355; first compound 8 µM", "result": 0.657}, {"measurement": "relative viability", "setting": "UMC-11; first compound 0.08 µM", "result": 1.1}, {"measurement": "relative viability", "setting": "UMC-11; first compound 0.8 µM", "result": 1.15}, {"measurement": "relative viability", "setting": "UMC-11; first compound 2.53 µM", "result": 1.27}, {"measurement": "relative viability", "setting": "UMC-11; first compound 8 µM", "result": 1.22}, {"measurement": "relative viability", "setting": "NCI-H1734; first compound 0.08 µM", "result": 0.201}, {"measurement": "relative viability", "setting": "NCI-H1734; first compound 0.8 µM", "result": 0.208}, {"measurement": "relative viability", "setting": "NCI-H1734; first compound 2.53 µM", "result": 0.208}, {"measurement": "relative viability", "setting": "NCI-H1734; first compound 8 µM", "result": 0.197}, {"measurement": "relative viability", "setting": "NCI-H1666; first compound 0.08 µM", "result": 1.04}, {"measurement": "relative viability", "setting": "NCI-H1666; first compound 0.8 µM", "result": 1.01}, {"measurement": "relative viability", "setting": "NCI-H1666; first compound 2.53 µM", "result": 1.04}, {"measurement": "relative viability", "setting": "NCI-H1666; first compound 8 µM", "result": 1.01}, {"measurement": "relative viability", "setting": "BEN; first compound 0.08 µM", "result": 0.29}, {"measurement": "relative viability", "setting": "BEN; first compound 0.8 µM", "result": 1.12}, {"measurement": "relative viability", "setting": "BEN; first compound 2.53 µM", "result": 0.435}, {"measurement": "relative viability", "setting": "BEN; first compound 8 µM", "result": 0.517}, {"measurement": "relative viability", "setting": "SW 1573; first compound 0.08 µM", "result": 0.256}, {"measurement": "relative viability", "setting": "SW 1573; first compound 0.8 µM", "result": 0.341}, {"measurement": "relative viability", "setting": "SW 1573; first compound 2.53 µM", "result": 0.252}, {"measurement": "relative viability", "setting": "SW 1573; first compound 8 µM", "result": 0.216}, {"measurement": "relative viability", "setting": "201T; first compound 0.08 µM", "result": 0.987}, {"measurement": "relative viability", "setting": "201T; first compound 0.8 µM", "result": 1.08}, {"measurement": "relative viability", "setting": "201T; first compound 2.53 µM", "result": 1.06}, {"measurement": "relative viability", "setting": "201T; first compound 8 µM", "result": 1.09}]}]}
